From the supplement of paper PMC10307832

Experiments:
Assay in all cases: relative viability (nuclei count vs DMSO), 5 days (fraction); higher = more cells survive
[1] = compound: O=C(C[C@H]1NCCC[C@@H]1O)Cn1cnc2cc(Br)c(Cl)cc2c1=O (racemic) [Halofuginone] + C[C@@H](Oc1cc(-c2cnn(C3CCNCC3)c2)cnc1N)c1c(Cl)ccc(F)c1Cl [Crizotinib] (partner 1 µM)
Summary of the method: (§1)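 Lung cancer cell lines were seeded in 1536-well plates and dosed by pin tool the next day, with either a single drug or a fixed anchor-drug dose combined with five library-drug doses (not always all listed) spaced in √10 steps. Five days later, one step fixed the cells and stained their nuclei (final 0.05% Triton X-100, 1% formaldehyde, 1 ug/ml Hoechst), and nuclei were counted on 4× images. Relative viability is the nuclei count in treated wells divided by the count in vehicle wells, and each value is the median of duplicate plates.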

[2] = compound: O=C(C[C@H]1NCCC[C@@H]1O)Cn1cnc2cc(Br)c(Cl)cc2c1=O (racemic) [Halofuginone] + Cc1cc(Nc2cc(N3CCN(C)CC3)nc(Sc3ccc(NC(=O)C4CC4)cc3)n2)n[nH]1 [Tozasertib] (partner 0.1 µM)
Summary of the method: as §1

[3] = compound: COc1cc2c(Oc3ccc4[nH]c(C)cc4c3F)ncnc2cc1OCCCN1CCCC1 [Cediranib] + N=C(N)NC(=N)NCCc1ccccc1 [Phenformin] (partner 250 µM)
Summary of the method: as §1

[4] = compound: COc1cc2c(Oc3ccc4[nH]c(C)cc4c3F)ncnc2cc1OCCCN1CCCC1 [Cediranib] + C[C@@H](Oc1cc(-c2cnn(C3CCNCC3)c2)cnc1N)c1c(Cl)ccc(F)c1Cl [Crizotinib] (partner 1 µM)
Summary of the method: as §1

UMC-11
relative viability ([1]; first compound 0.001 µM): 0.66 | relative viability ([1]; first compound 0.003162 µM): 0.558 | relative viability ([1]; first compound 0.01 µM): 0.575 | relative viability ([1]; first compound 0.03162 µM): 0.534 | relative viability ([1]; first compound 0.1 µM): 0.215 | relative viability ([2]; first compound 0.001 µM): 0.219 | relative viability ([2]; first compound 0.003162 µM): 0.196 | relative viability ([2]; first compound 0.01 µM): 0.189 | relative viability ([2]; first compound 0.03162 µM): 0.205 | relative viability ([2]; first compound 0.1 µM): 0.209 | relative viability ([3]; first compound 0.04 µM): 0.342 | relative viability ([3]; first compound 0.4 µM): 0.346 | relative viability ([3]; first compound 4 µM): 0.3 | relative viability ([4]; first compound 0.04 µM): 0.612 | relative viability ([4]; first compound 0.1265 µM): 0.573 | relative viability ([4]; first compound 0.4 µM): 0.512 | relative viability ([4]; first compound 1.265 µM): 0.656 | relative viability ([4]; first compound 4 µM): 0.427
